# Tested on: Healthy Articular Chondrocytes (HACs)
# Experiment: LPS-stimulated intracellular ROS (CM-H2DCFDA) in healthy chondrocytes
# Type: cell-based, human
# Details: 0.1 μM and 1 μM, 1 h pretreatment, then LPS 1 μg/ml for 48 h
# Description: Human articular chondrocytes (HAC) were transiently transfected with a siRNA control or targeting USP16 as described in Example 2. 36 hours post knockdown, cells were stimulated with LPS 1 μg/ml) for 48 h. Healthy Articular Chondrocytes (HACs) were pretreated with 0.1- and 1-μM Compound 2 for 1 h and then stimulated with LPS (1 μg/ml) for 48 h. At the end of the treatment, fluorescent dye, CM-H2DCFDA (final concentration 10 μl of 20 μM) was added to cells and incubated for 30 min in CO2 incubator to measure the intracellular ROS produced in these cells. After incubation, the cells were washed with cold-phosphate buffered saline and the fluorescence intensity of the stained cells was measured at an excitation and emission wavelength of 485 nm and 530 nm respectively. Fluorescence intensity was then normalized for cell number using Hoechst staining.
# Chondrocytes were pretreated with 0.1- and 1-μM CA for 1 h and then stimulated with LPS (1 μg/m)l for 48 h. For siRNA experiment, LPS stimulation was performed 36 hours after knockdown for additional 48 h. […] After incubation, the cells were washed with cold-phosphate buffered saline and the fluorescence intensity of the stained cells was measured at an excitation and emission wavelength of 485 nm and 530 nm respectively. Fluorescence intensity was then normalized for cell number using Hoechst staining.
structure (smiles),measurement,value
C#Cc1ccc(CNC(=O)c2cc(C(=O)CCl)cn2C)cc1 [Compound 2],inflammation-induced oxidative stress (intracellular ROS),reduced inflammation-induced oxidative stress in healthy chondrocytes in a dose-dependent manner
